Results published in US6906095B2, “Indolylalkylidenehydrazine-carboximidamide derivatives as 5-hydroxytryptamine-6 ligands” (Wyeth, priority 2002, dated 2005).

Biological target: T1, human cloned 5-HT6 receptors (Homo sapiens, UniProt P50406)
T1 construct: expressed in transfected cells; host or cells: Hela cells
Experiment: 5-HT6 binding affinity, [3H]-LSD displacement in membranes of Hela cells
Conditions: not given
Protocol: The affinity of test compounds for the serotonin 5-HT6 receptor is evaluated in the following manner. Cultured Hela cells expressing human cloned 5-HT6 receptors are harvested and centrifuged at low speed (1,000×g) for 10.0 min to remove the culture media. The harvested cells are suspended in half volume of fresh physiological phosphate buffered saline solution and recentrifuged at the same speed. This operation is repeated. The collected cells are then homogenized in ten volumes of 50 mM Tris.HCl (pH 7.4) and 0.5 mM EDTA. The homogenate is centrifuged at 40,000×g for 30.0 min and the precipitate is collected. The obtained pellet is resuspended in 10 volumes of Tris.HCl buffer and recentrifuged at the same speed. The final pellet is suspended in a small volume of Tris.HCl buffer and the tissue protein content is determined in aliquots of 10-25 μl volumes. Bovine Serum Albumin is used as the standard in the protein determination according to the method described in Lowry et al., J. Biol. Chem., 193:265 (1951). The volume of the suspended cell membranes is adjusted to give a tissue protein concentration of 1.0 mg/ml of suspension. The prepared membrane suspension (10 times concentrated) is aliquoted in 1.0 ml volumes and stored at −70° C. until used in subsequent binding experiments.
The reaction is allowed to proceed in the dark for 120 min at room temperature, at which time, the bound ligand-receptor complex is filtered off on a 96 well unifilter with a Packard Filtermate® 196 Harvester. The bound complex caught on the filter disk is allowed to air dry and the radioactivity is measured in a Packard TopCount® equipped with six photomultiplier detectors, after the addition of 40.0 μl Microscint®-20 scintillant to each shallow well. The unifilter plate is heat-sealed and counted in a PackardTopCount® with a tritium efficiency of 31.0%.
Specific binding to the 5-HT6 receptor is defined as the total radioactivity bound less the amount bound in the presence of 10.0 μM unlabeled methiothepin. Binding in the presence of varying concentrations of test compound is expressed as a percentage of specific binding in the absence of test compound. The results are plotted as logit % bound versus log concentration of test compound. Nonlinear regression analysis of data points with a computer assisted program Prism® yields both the IC50 and the Ki values of test compounds with 95% confidence limits.
The amount of displacement by the test compound is given in percent (%) inhibition and is derived from the following equation: [formula] where B0 is the amount of CPM bound in the presence of the testing agent. NSB represents the CPM bound in the presence of a saturating concentration of a displacer and TB represents the total amount of CPM bound at zero (0) concentration of test compound.
Alternatively, a linear regression line of decline of data points is plotted, from which the IC50 value can be read off and the Ki value determined by solving the following equation: [formula] where L is the concentration of the radioactive ligand used and KD is the dissociation constant of the ligand for the receptor, both expressed in nM.

T1 sequence (P50406 whole entry): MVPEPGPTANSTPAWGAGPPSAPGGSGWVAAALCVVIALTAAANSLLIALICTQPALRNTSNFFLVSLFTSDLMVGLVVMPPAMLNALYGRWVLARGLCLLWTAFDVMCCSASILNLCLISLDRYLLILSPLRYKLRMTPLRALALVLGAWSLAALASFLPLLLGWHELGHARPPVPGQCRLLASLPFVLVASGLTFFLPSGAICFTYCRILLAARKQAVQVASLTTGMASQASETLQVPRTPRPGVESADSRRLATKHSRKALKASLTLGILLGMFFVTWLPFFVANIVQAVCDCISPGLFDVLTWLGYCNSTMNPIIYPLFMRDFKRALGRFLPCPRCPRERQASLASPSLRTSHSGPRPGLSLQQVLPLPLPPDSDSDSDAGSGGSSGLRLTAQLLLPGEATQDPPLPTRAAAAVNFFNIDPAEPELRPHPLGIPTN

| SMILES | Ki [nM] |
| --- | --- |
| N=C(N)NN=C(Cc1ccccc1)c1cn(S(=O)(=O)c2ccccc2)c2ccccc12 [Example 6, 2-{2-phenyl-1-[1-(phenylsulfonyl)-1H-indol-3-yl]ethylidene}hydrazinecarboximidamide] | 11 |
| CCC(=NNC(=N)N)c1cn(S(=O)(=O)c2ccc(N)cc2)c2ccc(Cl)cc12 [Example 121, 2-(1-{1-[(4-aminophenyl)sulfonyl]-5-chloro-1H-indol-3-yl}propylidene)hydrazinecarboximidamide] | 9 |

Other lines, results leading:

| Ki [nM] | SMILES |
| --- | --- |
| 8 | CC(=NNC(=N)N)c1cn(S(=O)(=O)c2c(Cl)nc3sccn23)c2ccccc12 [Example 36, 2-(1-{1-[(6-chloroimidazo[2,1-b][1,3]thiazol-5-yl)sulfonyl]-1H-indol-3-yl}ethylidene)hydrazinecarboximidamide] |
| 13 | CC(=NNC(=N)N)c1cn(S(=O)(=O)c2ccccc2Br)c2ccccc12 [Example 31, 2-(1-{1-[(2-bromophenyl)sulfonyl]-1H-indol-3-yl}ethylidene)hydrazinecarboximidamide] |
| 12 | CCCCCNC(=N)NN=C(C)c1cn(S(=O)(=O)c2ccccc2)c2ccccc12 [Example 123, N-Pentyl-2-{1-[1-(phenylsulfonyl)-1H-indol-3-yl]ethylidene}-hydrazinecarboximidamide] |
| 25 | CC(=NNC(=N)N)c1cn(S(=O)(=O)c2ccc(Cl)s2)c2ccccc12 [Example 37, 2-(1-{1-[(5-chlorothien-2-yl)sulfonyl]-1H-indol-3-yl}ethylidene)hydrazinecarboximidamide] |

Same assay, conditions: test compound dose 100 nM; [3H]-LSD 3.0 nM

| SMILES | inhibition at 0.1 µM [%] |
| --- | --- |
| CCCCS(=O)(=O)n1cc(C(=NNC(=N)N)C2CC2)c2ccc(F)cc21 [Example 105, 2-[[1-(butylsulfonyl)-6-fluoro-1H-indol-3-yl](cyclopropyl)methylidene]hydrazinecarboximidamide] | 58.4 |
| CCCCS(=O)(=O)n1cc(C(C)=NNC(=N)N)c2ccccc21 [Example 58, 2-{1-[1-(butylsulfonyl)-1H-indol-3-yl]ethylidene}hydrazinecarboximidamide] | 78.3 |
| CC(=NNC(=N)N)c1cn(S(=O)(=O)c2ccc(Br)cc2)c2ccccc12 [Example 30, 2-(1-{1-[(4-bromophenyl)sulfonyl]-1H-indol-3-yl}ethylidene)hydrazinecarboximidamide] | 65 |
| CC(=NNC(=N)NCc1ccccn1)c1cn(S(=O)(=O)c2ccccc2)c2ccccc12 [Example 126, 2-{1-[1-(phenylsulfonyl)-1H-indol-3-yl]ethylidene}-N-(pyridin-2-ylmethyl)hydrazinecarboximidamide] | 37.7 |
| CC(=NNC(=N)N)c1cn(C(=O)Oc2ccccc2)c2ccccc12 [Example 128, phenyl 3-(1-{2-[amino(imino)methyl]hydrazono}ethyl)-1H-indole-1-carboxylate] | 23.9 |
| CC(=NNC(=N)N)c1cn(S(=O)(=O)c2cccc3nsnc23)c2ccccc12 [Example 24, 2-{1-[1-(2,1,3-benzothiadiazol-4-ylsulfonyl)-1H-indol-3-yl]ethylidene}hydrazinecarboximidamide] | 62.9 |
| CC(=NNC(=N)N)c1cn(S(=O)(=O)c2sc(Cl)cc2Br)c2ccccc12 [Example 29, 2-(1-{1-[(3-bromo-5-chlorothien-2-yl)sulfonyl]-1H-indol-3-yl}ethylidene)hydrazinecarboximidamide] | 60.3 |
| CC(=NNC(=N)N)c1cn(S(=O)(=O)c2ccc(OC(F)(F)F)cc2)c2ccccc12 [Example 54, 2-[1-(1-{[4-(trifluoromethoxy)phenyl]sulfonyl}-1H-indol-3-yl)ethylidene]hydrazinecarboximidamide] | 26.2 |

Other lines, results leading:

| inhibition at 0.1 µM [%] | SMILES |
| --- | --- |
| 75.2 | CCCNC(=N)NN=C(C)c1cn(S(=O)(=O)c2ccccc2)c2ccccc12 [Example 124, 2-{1-[1-(phenylsulfonyl)-1H-indol-3-yl]ethylidene}-N-propylhydrazinecarboximidamide] |
| 58.3 | CC(=NNC(=N)N)c1cn(S(=O)(=O)c2cc(Br)c(Cl)s2)c2ccccc12 [Example 28, 2-(1-{1-[(4-bromo-5-chlorothien-2-yl)sulfonyl]-1H-indol-3-yl}ethylidene)hydrazinecarboximidamide] |
| 41 | CC(=NNC(=N)N)c1cn(S(=O)(=O)c2cc([N+](=O)[O-])ccc2C)c2ccccc12 [Example 46, 2-(1-{1-[(2-methyl-5-nitrophenyl)sulfonyl]-1H-indol-3-yl}ethylidene)hydrazinecarboximidamide] |
| 86.4 | CC(=NNC(=N)N)c1cn(S(=O)(=O)c2c(Cl)nc3sccn23)c2ccccc12 [Example 36, 2-(1-{1-[(6-chloroimidazo[2,1-b][1,3]thiazol-5-yl)sulfonyl]-1H-indol-3-yl}ethylidene)hydrazinecarboximidamide] |
| 83.3 | CC(=NNC(=N)N)c1cn(S(=O)(=O)c2ccccc2Br)c2ccccc12 [Example 31, 2-(1-{1-[(2-bromophenyl)sulfonyl]-1H-indol-3-yl}ethylidene)hydrazinecarboximidamide] |
| 49.6 | CC(=NNC(=N)N)c1cn(C(=O)c2ccccc2)c2ccccc12 [Example 130, 2-[1-(1-benzoyl-1H-indol-3-yl)ethylidene]hydrazinecarboximidamide] |
| 34 | CCCCCNC(=N)NN=C(C)c1cn(S(=O)(=O)c2ccccc2)c2ccccc12 [Example 123, N-Pentyl-2-{1-[1-(phenylsulfonyl)-1H-indol-3-yl]ethylidene}-hydrazinecarboximidamide] |
| 75.2 | CC(=NNC(=N)N)c1cn(S(=O)(=O)c2ccc(Cl)s2)c2ccccc12 [Example 37, 2-(1-{1-[(5-chlorothien-2-yl)sulfonyl]-1H-indol-3-yl}ethylidene)hydrazinecarboximidamide] |
| 62.6 | CCCCS(=O)(=O)n1cc(C(=NNC(=N)N)C2CC2)c2ccccc21 [Example 60, 2-[[1-(butylsulfonyl)-1H-indol-3-yl](cyclopropyl)methylidene]hydrazinecarboximidamide] |
| 25.8 | CC(=NNC(=N)N)c1cn(S(=O)(=O)c2cccc3c(N(C)C)cccc23)c2ccccc12 [Example 38, 2-[1-(1-{[5-(dimethylamino)-1-naphthyl]sulfonyl}-1H-indol-3-yl)ethylidene]hydrazinecarboximidamide] |
| 67.1 | CC(=NNC(=N)N)c1c(-c2ccccc2)n(S(=O)(=O)c2ccccc2)c2ccccc12 [Example 15, 2-{1-[2-phenyl-1-(phenylsulfonyl)-1H-indol-3-yl]ethylidene}hydrazinecarboximidamide] |

Same assay, conditions: test compound dose 1000 nM; [3H]-LSD 3.0 nM; read-out: % Inhibition

| SMILES | inhibition at 1 µM [%] |
| --- | --- |
| CC(C)C(=NNC(=N)N)c1cn(S(=O)(=O)c2ccccc2)c2ccccc12 [Example 5, 2-{2-methyl-1-[1-(phenylsulfonyl)-1H-indol-3-yl]propylidene}hydrazinecarboximidamide] | 91.5 |
| N=C(N)NN=C(Cc1ccccc1)c1cn(S(=O)(=O)c2ccccc2)c2ccccc12 [Example 6, 2-{2-phenyl-1-[1-(phenylsulfonyl)-1H-indol-3-yl]ethylidene}hydrazinecarboximidamide] | 97.8 |
| CC(=NNC(=N)N)c1c(-c2ccc3ccccc3c2)n(S(=O)(=O)c2ccccc2)c2ccccc12 [Example 14, 2-{1-[2-(2-naphthyl)-1-(phenylsulfonyl)-1H-indol-3-yl]ethylidene}hydrazinecarboximidamide] | 85.4 |
| CC(=NNC(=N)N)c1c(-c2ccc(F)c(Cl)c2)n(S(=O)(=O)c2ccccc2)c2ccccc12 [Example 12, 2-{1-[2-(3-chloro-4-fluorophenyl)-1-(phenylsulfonyl)-1H-indol-3-yl]ethylidene}hydrazinecarboximidamide] | 75.6 |
| CCCCC(=NNC(=N)N)c1cn(S(C)(=O)=O)c2cc(F)ccc12 [Example 101, 2-{1-[6-fluoro-1-(methylsulfonyl)-1H-indol-3-yl]pentylidene}hydrazinecarboximidamide] | 77.4 |

The remaining lines, values ahead:

| inhibition at 1 µM [%] | SMILES |
| --- | --- |
| 77.7 | CCCCC(=NNC(=N)N)c1cn(S(=O)(=O)CCCC)c2ccccc12 [Example 59, 2-{1-[1-(butylsulfonyl)-1H-indol-3-yl]pentylidene}hydrazinecarboximidamide] |
| 61 | CCCCC(=NNC(=N)N)c1cn(S(=O)(=O)c2ccc(OC)cc2)c2ccc(Cl)cc12 [Example 79, 2-(1-{5-chloro-1-[(4-methoxyphenyl)sulfonyl]-1H-indol-3-yl}pentylidene)hydrazinecarboximidamide] |
| 73.5 | CCCCC(=NNC(=N)N)c1cn(S(=O)(=O)c2ccc(OC)c(OC)c2)c2cc(F)ccc12 [Example 116, 2-(1-{1-[(3,4-dimethoxyphenyl)sulfonyl]-6-fluoro-1H-indol-3-yl}pentylidene)hydrazinecarboximidamide] |
| 85.5 | COc1ccc(S(=O)(=O)n2cc(C(C)=NNC(=N)N)c3cc(Cl)ccc32)cc1 [Example 78, 2-(1-{5-chloro-1-[(4-methoxyphenyl)sulfonyl]-1H-indol-3-yl}ethylidene)hydrazinecarboximidamide] |
| 27.9 | N=C(N)NN=C(c1c(-c2ccc(Cl)cc2)n(S(=O)(=O)c2ccc3ccccc3c2)c2ccccc12)C1CC1 [Example 94, 2-[[2-(4-chlorophenyl)-1-(2-naphthylsulfonyl)-1H-indol-3-yl](cyclopropyl)methylidene]hydrazinecarboximidamide] |
